Values quoted from earlier work in US7358226B2, “Ultrasonic concentration of drug delivery capsules” (The Regents of the University of California, priority 2003, dated 2008).

What was measured:
tumor = details: paclitaxel alone
P-glycoprotein = target: T1, P-glycoprotein (Mus musculus, UniProt P21447)
T1 construct: host or cells: mouse brain in vivo (endogenous protein)

P-gp = target: T2, P-gp (Mus musculus, UniProt P21447)
T2 construct: host or cells: mouse brain in vivo (endogenous protein)
T2 sequence (P21447 whole entry): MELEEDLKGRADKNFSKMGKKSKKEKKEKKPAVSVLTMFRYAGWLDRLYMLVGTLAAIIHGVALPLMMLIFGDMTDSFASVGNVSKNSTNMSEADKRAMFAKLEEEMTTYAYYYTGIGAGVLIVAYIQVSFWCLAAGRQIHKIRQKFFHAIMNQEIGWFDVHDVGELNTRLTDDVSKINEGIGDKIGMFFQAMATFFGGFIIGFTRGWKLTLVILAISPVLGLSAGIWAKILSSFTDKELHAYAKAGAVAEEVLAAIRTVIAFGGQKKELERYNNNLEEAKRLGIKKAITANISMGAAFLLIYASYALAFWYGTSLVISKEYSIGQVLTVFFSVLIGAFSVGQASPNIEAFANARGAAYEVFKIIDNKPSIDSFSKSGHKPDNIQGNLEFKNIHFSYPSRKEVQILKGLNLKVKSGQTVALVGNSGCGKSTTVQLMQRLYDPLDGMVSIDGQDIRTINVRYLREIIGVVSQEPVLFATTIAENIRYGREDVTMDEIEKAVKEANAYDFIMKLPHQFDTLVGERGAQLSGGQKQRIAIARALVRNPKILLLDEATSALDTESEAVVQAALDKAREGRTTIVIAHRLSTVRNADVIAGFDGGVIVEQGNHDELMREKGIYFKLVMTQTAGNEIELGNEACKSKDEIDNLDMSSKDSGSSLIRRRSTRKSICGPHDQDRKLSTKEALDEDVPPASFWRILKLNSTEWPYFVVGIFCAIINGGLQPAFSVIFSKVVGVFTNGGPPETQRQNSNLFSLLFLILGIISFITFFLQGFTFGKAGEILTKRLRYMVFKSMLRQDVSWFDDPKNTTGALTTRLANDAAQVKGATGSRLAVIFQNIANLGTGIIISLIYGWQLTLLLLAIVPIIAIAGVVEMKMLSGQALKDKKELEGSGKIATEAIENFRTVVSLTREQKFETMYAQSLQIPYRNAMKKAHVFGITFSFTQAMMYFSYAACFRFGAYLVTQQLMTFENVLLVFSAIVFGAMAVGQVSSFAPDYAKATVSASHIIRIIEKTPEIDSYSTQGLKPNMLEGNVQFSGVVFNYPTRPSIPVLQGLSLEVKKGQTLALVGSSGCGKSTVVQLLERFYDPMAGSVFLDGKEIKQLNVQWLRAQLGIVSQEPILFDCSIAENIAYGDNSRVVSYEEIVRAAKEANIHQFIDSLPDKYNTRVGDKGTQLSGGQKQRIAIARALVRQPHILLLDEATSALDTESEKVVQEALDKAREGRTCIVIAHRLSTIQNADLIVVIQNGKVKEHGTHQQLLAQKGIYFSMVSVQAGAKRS

T1 sequence (P21447 whole entry): as above

CC(=O)O[C@H]1C(=O)[C@@]2(C)[C@H]([C@H](OC(=O)c3ccccc3)[C@]3(O)C[C@H](OC(=O)[C@H](O)[C@@H](NC(=O)c4ccccc4)c4ccccc4)C(C)=C1C3(C)C)[C@]1(OC(C)=O)CO[C@@H]1C[C@@H]2O [paclitaxel, Paclitaxel]
effect on tumor volume (tumor): did not affect tumor volume | penetration of paclitaxel into the brain (P-glycoprotein; P-glycoprotein knockout mice): markedly increased

COc1cc2c(cc1OC)CN(CCc1ccc(NC(=O)c3cc(OC)c(OC)cc3NC(=O)c3cnc4ccccc4c3)cc1)CC2 [XR9576]
increase of uptake of F18-fluoropaclitaxel (P-gp; preadministration of XR9576, increase was not significant): 20%

CC(=O)O[C@H]1C(=O)[C@@]2(C)[C@H]([C@H](OC(=O)c3ccccc3)[C@]3(O)C[C@H](OC(=O)[C@H](O)[C@@H](NC(=O)c4ccc([18F])cc4)c4ccccc4)C(C)=C1C3(C)C)[C@]1(OC(C)=O)CO[C@@H]1C[C@@H]2O [F18-fluoropaclitaxel]
increase of F18-fluoropaclitaxel uptake in the brain (P-gp; P-gp knockout mice relative to wildtype controls): 1400% | clearance (P-gp; mouse, in vivo): rapid clearance | tissue uptake (P-gp; mouse, in vivo): high uptake in many tissues

C/C=C/C[C@@H](C)C(=O)[C@H]1C(=O)N[C@@H](C(C)C)C(=O)N(C)CC(=O)N(C)[C@@H](CC(C)C)C(=O)N[C@@H](C(C)C)C(=O)N(C)[C@@H](CC(C)C)C(=O)N[C@@H](C)C(=O)N[C@H](C)C(=O)N(C)[C@@H](CC(C)C)C(=O)N(C)[C@@H](CC(C)C)C(=O)N(C)[C@@H](C(C)C)C(=O)N1C [Valspodar]
brain concentrations of paclitaxel (P-glycoprotein; Valspodar co-administered with paclitaxel): significantly increase
